How the values were obtained:
Plasma = experiment: Fraction unbound in human plasma at 1000 ng/mL by equilibrium dialysis method; type: ADME, cell-free
Rattus norvegicus [1] = experiment: Average free plasma concentration in Sprague-Dawley rat at 30 mg/kg, po after 24 hrs; type: ADME, organism-based; parameters: dose 30 mg/kg, route oral; settings: in vivo
[2] = target: T1, Organic anion transporter 3 (Homo sapiens, UniProt Q8TCC7); experiment: Inhibition of human OAT3
T1 sequence (Q8TCC7 whole entry): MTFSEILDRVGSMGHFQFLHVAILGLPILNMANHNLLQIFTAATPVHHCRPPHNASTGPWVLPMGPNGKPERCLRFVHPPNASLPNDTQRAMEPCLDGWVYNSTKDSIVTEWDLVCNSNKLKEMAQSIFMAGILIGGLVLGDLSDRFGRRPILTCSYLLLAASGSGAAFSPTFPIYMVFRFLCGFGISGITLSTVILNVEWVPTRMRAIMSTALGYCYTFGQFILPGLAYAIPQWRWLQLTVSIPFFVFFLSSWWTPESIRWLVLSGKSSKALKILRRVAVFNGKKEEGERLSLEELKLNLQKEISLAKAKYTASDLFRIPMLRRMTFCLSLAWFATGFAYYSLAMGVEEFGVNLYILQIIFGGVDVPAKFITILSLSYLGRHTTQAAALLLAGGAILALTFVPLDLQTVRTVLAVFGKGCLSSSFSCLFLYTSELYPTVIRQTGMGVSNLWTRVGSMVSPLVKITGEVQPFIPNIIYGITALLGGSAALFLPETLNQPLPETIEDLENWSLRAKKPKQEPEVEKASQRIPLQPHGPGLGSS

Rattus norvegicus [3] = experiment: Inhibition of SGLT2 in po dosed Sprague-Dawley rat after 24 hrs; type: functional, organism-based
[4] = Apparent intrinsic clearance in human liver microsomes assessed per mg of protein; type: ADME, Microsome
[5] = target: T2, Solute carrier family 22 member 6 (Homo sapiens, UniProt Q4U2R8); experiment: Inhibition of human OAT1
T2 sequence (Q4U2R8 whole entry): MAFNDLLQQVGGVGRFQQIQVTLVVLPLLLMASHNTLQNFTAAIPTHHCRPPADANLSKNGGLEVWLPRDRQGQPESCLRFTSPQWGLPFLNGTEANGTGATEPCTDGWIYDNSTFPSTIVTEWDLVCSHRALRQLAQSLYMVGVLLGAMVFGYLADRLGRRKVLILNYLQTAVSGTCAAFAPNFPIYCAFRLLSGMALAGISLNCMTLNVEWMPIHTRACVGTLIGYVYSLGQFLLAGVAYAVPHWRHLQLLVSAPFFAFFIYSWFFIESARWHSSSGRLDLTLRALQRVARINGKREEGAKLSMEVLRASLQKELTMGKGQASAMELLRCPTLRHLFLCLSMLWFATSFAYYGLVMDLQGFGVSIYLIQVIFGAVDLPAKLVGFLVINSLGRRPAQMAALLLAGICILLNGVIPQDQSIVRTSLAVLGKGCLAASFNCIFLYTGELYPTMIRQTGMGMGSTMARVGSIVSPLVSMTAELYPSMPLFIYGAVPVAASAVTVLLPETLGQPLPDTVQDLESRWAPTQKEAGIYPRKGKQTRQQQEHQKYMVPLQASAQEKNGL

Rattus norvegicus [6] = experiment: Antidiabetic activity in po dosed Sprague-Dawley rat assessed as increase of urinary glucose excretion after 24 hrs; type: functional, organism-based; settings: Urine
[7] = Apparent intrinsic clearance in human hepatocytes assessed per million of cells; type: ADME, cell-based, Liver, Hepatocyte
[8] = Lipophilicity, log D of the compound; type: physicochemical; settings: octanol/water
[9] = Cmax in Sprague-Dawley rat at 5 mg/kg, po; type: ADME, organism-based; parameters: dose 5 mg/kg, route oral; settings: in vivo
[10] = target: T3, Solute carrier family 22 member 2 (Rattus norvegicus, UniProt Q9R0W2); experiment: Inhibition of rat OCT2 expressed in HEK293 cells; type: cell-based
T3 sequence (Q9R0W2 whole entry): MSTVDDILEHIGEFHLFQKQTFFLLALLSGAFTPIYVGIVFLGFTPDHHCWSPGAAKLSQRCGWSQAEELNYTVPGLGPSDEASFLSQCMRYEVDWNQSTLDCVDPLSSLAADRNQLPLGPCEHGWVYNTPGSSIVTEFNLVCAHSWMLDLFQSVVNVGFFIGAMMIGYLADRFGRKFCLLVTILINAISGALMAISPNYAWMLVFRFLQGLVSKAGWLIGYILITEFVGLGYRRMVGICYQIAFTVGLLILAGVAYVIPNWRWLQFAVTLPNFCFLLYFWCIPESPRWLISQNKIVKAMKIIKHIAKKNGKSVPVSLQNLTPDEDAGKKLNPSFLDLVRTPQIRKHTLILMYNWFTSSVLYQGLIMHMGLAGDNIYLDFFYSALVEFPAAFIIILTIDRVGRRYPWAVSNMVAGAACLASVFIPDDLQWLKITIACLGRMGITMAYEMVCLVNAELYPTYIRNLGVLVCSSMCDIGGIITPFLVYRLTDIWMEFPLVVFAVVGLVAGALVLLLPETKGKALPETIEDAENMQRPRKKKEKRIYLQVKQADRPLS

[11] = Volume of distribution at steady state in Sprague-Dawley rat at 2 mg/kg, iv; type: ADME, organism-based; parameters: dose 2 mg/kg, route intravenous; settings: in vivo, read-out: Vdss
[12] = Tmax in Sprague-Dawley rat at 5 mg/kg, po; type: ADME, organism-based; parameters: dose 5 mg/kg, route oral; settings: in vivo
[13] = Oral bioavailability in Sprague-Dawley rat at 5 mg/kg; type: ADME, organism-based; settings: in vivo
[14] = target: T4, Solute carrier family 22 member 3 (Rattus norvegicus, UniProt O88446); experiment: Inhibition of rat OCT3 expressed in HEK293 cells; type: cell-based
T4 sequence (O88446 whole entry): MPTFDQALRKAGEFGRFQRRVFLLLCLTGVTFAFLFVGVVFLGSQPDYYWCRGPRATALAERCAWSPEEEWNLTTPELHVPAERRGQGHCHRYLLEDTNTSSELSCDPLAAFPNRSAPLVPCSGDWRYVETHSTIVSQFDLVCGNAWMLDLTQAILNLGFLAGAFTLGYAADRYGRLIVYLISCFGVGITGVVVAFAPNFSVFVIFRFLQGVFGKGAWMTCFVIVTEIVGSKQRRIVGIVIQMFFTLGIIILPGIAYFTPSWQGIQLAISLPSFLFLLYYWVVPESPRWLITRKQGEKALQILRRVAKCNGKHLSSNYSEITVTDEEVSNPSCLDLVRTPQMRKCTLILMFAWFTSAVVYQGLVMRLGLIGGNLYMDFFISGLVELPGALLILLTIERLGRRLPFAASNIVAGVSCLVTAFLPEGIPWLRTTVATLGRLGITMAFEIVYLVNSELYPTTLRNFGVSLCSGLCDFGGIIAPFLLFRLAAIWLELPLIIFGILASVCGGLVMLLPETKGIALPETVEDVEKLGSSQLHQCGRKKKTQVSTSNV

With `CCOc1ccc(Cc2cc([C@]34OC[C@](CO)(O3)[C@@H](O)[C@H](O)[C@H]4O)ccc2Cl)cc1` [ERTUGLIFLOZIN] the Fu (Plasma) was 6.4%, the Cp (Rattus norvegicus [1]) was 408 nM and the “inhibition (INH)” value [2] was “Not Active”. The IC50 (Rattus norvegicus [3]) was 1.8 nM, the microsomal CLint [4] was 12 µL/min/mg and the “inhibition (INH)” value [5] was “Not Active”. The Activity (Rattus norvegicus [6]) was “Dose-dependent effect”, the hepatocyte CLint [7] was 4.5 µL/min/1e6 cells and the logD [8] was 3.6. The Cmax [9] was 1940 ng/mL, the “inhibition (INH)” value [10] was “Not Active” and the Vd [11] was 1.13 L/kg. The Tmax [12] was 1 h, the bioavailability [13] was 69% and the “inhibition (INH)” value [14] was “Not Active”.

From ChEMBL document CHEMBL1770065, “Discovery of a clinical candidate from the structurally unique dioxa-bicyclo[3.2.1]octane class of sodium-dependent glucose cotransporter 2 inhibitors” (J Med Chem, 2011)
